Row | Structure (SMILES) | melting point [°C]
1 | O=C(NC(=O)N(SN1CCCC1=O)c1ccc(Oc2ccc(C(F)(F)F)cc2Cl)cc1F)c1c(F)cccc1F | 125 to 126
2 | Oc1c2c(c(O)c3ccccc13)CCCC2 | 210 to 212
3 | CC(O)c1ccc2c(c1)CCC(=O)N2 (stereo unspecified) | 174
4 | CCCN1C(=O)C2CC2(c2ccc(N)cc2)C1=O (stereo unspecified) | 97
5 | COC(=O)C(C#N)c1cccc2ccc(OC)cc12 (stereo unspecified) | 80 to 82
6 | CCOC(=O)c1c(-c2ccccc2)c(-c2ccc(F)cc2)cn1C(C)C | 104 to 105
7 | O=CC(=Cc1ccc(OC(=O)c2ccccc2F)cc1)C(C=O)=Cc1ccc(OC(=O)c2ccccc2F)cc1 | 197 to 199
8 | Cc1ccc(Sc2ccccc2)c(CC(=O)O)c1 | 83 to 84
9 | Cc1c2c(cn1C)CN=C(c1ccccc1Cl)c1cc(Cl)ccc1-2 | 200 to 202
10 | CC(C)(C)c1ccc(N(c2ccccc2)c2ccc(-c3ccc(Nc4ccccc4)cc3)cc2)cc1 | 126 to 127
11 | CCCCCCCCCCCCCCCC(=O)N[C@@H](CSC[C@H](O)[C@H](O)CO)C(=O)O | 76 to 76.5
12 | COCCOC(=O)Cc1cccc(Nc2nccc(-c3sc(N)nc3C)n2)c1 | 182 to 184
13 | O=C1Nc2ccccc2C12CCCC(Br)C2 (stereo unspecified) | 196 to 199
14 | CN(C)CCn1c2c(c3ccccc31)CCS(=O)(=O)CCC2 | 154 to 155
15 | COc1cc2c(cc1OC)CN(CCCOc1ccc(NC(=O)c3cccc4c(=O)c5ccccc5sc34)cc1)CC2 | 210
16 | COc1c(C)c(C)c(OC)c(C(O)(c2ccccn2)C(C)C)c1C (stereo unspecified) | 99 to 100
17 | C=CCc1c(-c2ccc(S(C)(=O)=O)cc2)cnn(CC(F)(F)F)c1=O | 192 to 195
18 | COCCNC(=O)c1cccc2c1C1(COc3cc4c(cc31)OCCO4)C(=O)N2C (stereo unspecified) | 97 to 100
19 | O=C(Nc1ccccc1C(=NC1CCN(Cc2ccccc2)CC1)c1ccccc1)C(Cl)(Cl)Cl | 151 to 152
20 | O=[N+]([O-])c1ccc(Oc2ccc(C(F)(F)F)cc2Cl)cc1[N+](=O)[O-] | 80 to 81
21 | CCOC(=O)c1c2ccc(Cl)cc2c(-c2ccccc2)n1CCCN(C)c1ccccc1 | 108 to 110
22 | O=C(Cc1ccccc1O)N1C[C@@H]2SCCC(c3ccccc3)(c3ccccc3)[C@@H]2C1 (racemic) | 248
23 | COC(=O)c1sc(-c2ccccc2)cc1NC(C)=O | 115
24 | COC(=O)c1ccc(NC(=O)c2cc(C(C)C)c(C(C)C)s2)cc1Cl | 153 to 154

Row | Structure (SMILES) | melting point [°C]
25 | CC1(C)Oc2ccc(C#N)cc2[C@H](N)[C@@H]1O (relative stereo) | 85 to 86
26 | O=C(CCC(=O)N1CCC[C@H]1C(=O)O)c1ccccc1 | 95 to 97
27 | CN1C(=O)C(C)(C)N=C(c2ccccc2F)c2c1ccc(N)c2Br | 217 to 220
28 | CN=C(NC#N)C1=CC2(CCCCC2)Oc2ccc([N+](=O)[O-])cc21 | 244 to 245
29 | CCCN(CCc1coc2c(OC)cccc12)C1COc2c(F)ccc(C(N)=O)c2C1 (stereo unspecified) | 125 to 132
30 | Cn1ncc(C(=O)c2ccc(Cl)cc2Cl)c1OCc1ccc([N+](=O)[O-])cc1 | 116 to 118
31 | O=C(O)c1cccc(C(=O)Nc2cccc3cc(Br)cnc23)c1 | 275 to 277
32 | CS(=O)(=O)c1ccc(-c2cnn(-c3ccccc3[N+](=O)[O-])c(=O)c2-c2ccc(F)cc2)cc1 | 236 to 239
33 | CC(C)(CO)NC(=O)c1nn(-c2ccc(Cl)cc2)c2c1C1CCC2C1 (stereo unspecified) | 167 to 169
34 | O=C(c1ccccc1)c1ccc(OCc2cccnc2)cc1O | 88 to 90
35 | O=C(O)CCCCNC(=O)c1ccccc1NC(=O)c1ccccc1O | 168 to 170
36 | N#Cc1ccc(-c2cnc(F)c(OC3SCC(O)C(O)C3O)c2)cc1 (stereo unspecified) | 220
37 | CC1=C(C(=O)OCOC(=O)C(C)(C)C)N2C(=O)C(NC(=O)OC(C)(C)C)C2SC1 (stereo unspecified) | 97
38 | Cc1cc(C(F)(F)F)cnc1O | 141 to 143
39 | Cc1ccc(S(=O)(=O)NC(=O)N2CC2C#N)cc1 (stereo unspecified) | 156 to 158
40 | CN(C)CCCCOc1ccc(-c2nnc(CSCCOc3ccccc3)o2)cc1 | 62 to 63
41 | NS(=O)(=O)c1c(Cl)cccc1-c1ccccc1Cl | 151 to 153
42 | CC[C@H](C)CNC(=O)[C@@H](C[C@H](O)[C@H](CC1CCCCC1)NC(=O)[C@H](Cc1cscn1)NC(=O)OC(C)(C)C)C(C)(C)O | 190 to 193
43 | CCOC(=O)c1cc(NC(=O)c2ccccc2OC(C)=O)cc(Cl)c1O | 163 to 166
44 | Cc1cc(C)c(N2c3ccccc3S(=O)(=O)c3ccccc32)c(C)c1 | 242 to 246
45 | CC(C)(SSc1ccccc1C(=O)Nc1ccc(S(N)(=O)=O)cc1)C(N)C(=O)O (stereo unspecified) | 115 to 118
46 | COC(=O)Cc1csc2cc(-c3ccccc3)c(C=O)n12 | 118 to 120
47 | COC(=O)Cc1ccccc1OCc1ccc(OCc2nc(-c3ccccc3)sc2C)nc1 | 119 to 120
48 | FC(F)(F)c1cccc(Nc2nccc(-c3ccnc(Cl)c3)n2)c1 | 169 to 171

Row | Structure (SMILES) | melting point [°C]
49 | O=S1(=O)NC(C2CCCCC2)Nc2ccc(S(=O)(=O)N3CCOCC3)cc21 (stereo unspecified) | 262 to 264
50 | CCOc1nc(Nc2ccc(F)c(Cl)c2)nc(NC2CCN(S(C)(=O)=O)CC2)n1 | 197 to 199
51 | CS(=O)(=O)Nc1cc2occc(=O)c2cc1Oc1ccccc1 | 217 to 218
52 | CC(C)(C)OC(=O)N1CCCC1C(=O)Nc1ccc(-n2nc(C(F)(F)F)cc2C(F)(F)F)cc1 (stereo unspecified) | 70 to 72
53 | O=C(O)CN(CC(=O)O)CC(CCc1ccc([N+](=O)[O-])cc1)N(CC(=O)O)CC(=O)O (stereo unspecified) | 188 to 189
54 | N#Cc1cccc(-c2ccc(=O)n(Cc3cccc(-c4ncc(Br)cn4)c3)n2)c1 | 178 to 179
55 | Fc1ccccc1CNc1nc(Cl)ncc1F | 117 to 118
56 | CCc1nc2c(C)nn(C)c2c2nc(C)cn12 | 182 to 183
57 | CS(=O)(=O)c1cccc(Br)c1 | 63 to 64
58 | CC1(CN2CCC(Oc3ccc(C(F)(F)F)cc3)CC2)Cn2cc([N+](=O)[O-])nc2O1 (stereo unspecified) | 113 to 114
59 | N#CC(c1cccc(Cl)c1)N1CCOCC1 (stereo unspecified) | 72 to 73
60 | CCOC(=O)C(=O)Nc1c([N+](=O)[O-])sc2ccc(F)cc12 | 129 to 131
61 | CCCCCCCCC(=O)N(C)Cc1ccc(C(=O)O)cc1 | 79.5 to 81
62 | CC(=O)Nc1ccc2c(c1)C(c1ccccc1F)=NCc1cnc(C)n1-2 | 326 to 331
63 | COc1ccc(CSc2cc(C(=O)Nc3ccc(C#N)cc3)ccn2)cc1 | 201 to 203
64 | O=C(Nc1ccc(-n2nc(C3CC3)cc2C2CC2)cc1)c1ccccc1 | 133 to 138
65 | CN(C)C1CCc2c(c3ccccc3n2CCC(=O)O)C1 (stereo unspecified) | 106 to 108
66 | CCCc1nc2ccccc2n1Cc1ccc(C2=C(C(=O)O)CCC2)cc1 | 224 to 226
67 | CC(C)CC1(C(CCN2C(=O)c3ccc4c(ccc5ccccc54)c3C2=O)C(=O)NO)CCN(CCc2ccccc2)C1=O (stereo unspecified) | 203 to 205
68 | COc1cc2ncnc(N3CCC(CN)CC3)c2cc1OC | 144 to 146
69 | COc1ccc(NC(=O)c2ccccc2C(c2ccc(O)cc2)c2ccc(O)cc2)c(OC)c1 | 122 to 124
70 | CN(C)c1ccc(C(c2ccccc2)c2c(C(=O)O)[nH]c3ccccc23)cc1 (stereo unspecified) | 72 to 78
71 | CCOC(=O)c1sc(NC(C)=O)c(C(=O)OCC)c1C | 130 to 131
72 | N#CC(Br)c1ccc(Cl)cc1 (stereo unspecified) | 46 to 49

Row | Structure (SMILES) | melting point [°C]
73 | CCc1ccc(N(Cc2ccc(N3CCOCC3)cc2)C(=O)Nc2c(C(C)C)cccc2C(C)C)cc1 | 159 to 161
74 | COC(=O)c1c(C)noc1C(=O)NC(C)C | 64 to 66
75 | N#CCC(=O)c1ccc(C(F)(F)F)cc1[N+](=O)[O-] | 79.5 to 80.5
76 | O=c1nc(-c2ccncc2O)nc2n(C3CCCC3)[nH]c(C(F)(F)F)c1-2 | 205 to 206
77 | CC(C)(Cc1ccc(OCCCC(=O)O)cc1)NCC(O)c1cc(O)cc2c1OCC(=O)N2 (stereo unspecified) | 201 to 204
78 | Nc1ccc2ccc(Oc3cccc(Cl)c3)nc2n1 | 166
79 | CCCCOc1ccc(S(C)(=O)=O)cc1C(=O)Nc1c(C(N)=O)nn(C2CN(C(C)C)C2)c1CC | 198 to 201
80 | CCc1nc([N+](=O)[O-])c(CBr)n1C | 91 to 93
81 | CNC(=O)Cn1c(-c2ccc(Br)cc2)nc2cccnc21 | 258 to 259
82 | O=C(NC1CCCCC1)C1=C(c2ccccc2)C(c2ccccc2)OC1=O (stereo unspecified) | 151 to 153
83 | CC1(C)[C@@H](CNC(=O)C2CCC(F)(F)CC2)CC[C@@]1(C)NCC(=O)N1C[C@@H](F)C[C@H]1C#N | 193 to 195
84 | CCCCc1oc2ccccc2c1C(=O)NCc1ccc2c(-c3ccc(C)cc3)c(OCc3nnn[nH]3)ccc2c1 | 162 to 166
85 | COc1ccc(CNc2cc(Cl)ncc2C(=O)NCc2ncccn2)cc1Cl | 134 to 136
86 | Cc1ccc(CN2CCN(CCCOc3ccc4[nH]c(=O)cc(C)c4c3)CC2)cc1 | 162 to 163
87 | COC(=O)C1=C(C#N)NC(C)=C(C(=O)OC(C)C)C1c1cccc([N+](=O)[O-])c1 (stereo unspecified) | 120 to 122
88 | CN(CC(=O)O)S(=O)(=O)c1ccc(-c2ccc(NC(=O)c3cc4ccccc4o3)cc2)cc1 | 226 to 228
89 | CC(C)n1nc(-c2ccccc2)c(-c2ccc(F)cc2)c1CBr | 93 to 95
90 | Cc1cc(I)ccc1Nc1c(C(=O)O)cc(F)c(F)c1F | 206 to 210
91 | CCN(C(=O)c1ccc(Cn2cnc3ccccc32)cc1)C1CCCCC1 | 118 to 119
92 | CCS(=O)(=O)NCc1ccc2[nH]cc(CCCN3CCN(c4ncncc4OC)C(C)C3)c2c1 (stereo unspecified) | 202 to 210
93 | COc1ccc(-c2ccc3c(c2)C=C(C(=O)Nc2ccc(CN(C)C4CCOCC4)cc2)CCS3(=O)=O)cc1OC | 195 to 197
94 | CNC(=O)C(=NO)c1ccccc1CO | 128 to 131
95 | CCOC(=O)C(=CNn1cnnc1)C(=O)c1cc(F)c(F)cc1F | 239 to 240
96 | O=C(O)c1ccccc1C(=O)c1cc(-c2ccccc2)c(O)c(-c2ccccc2)c1 | 234
